ChEMBL document CHEMBL4138065, “Protein-ligand (un)binding kinetics as a new paradigm for drug discovery at the crossroad between experiments and modelling” (Medchemcomm, 2017)

molecular target: T1, C5a anaphylatoxin chemotactic receptor 1 (Homo sapiens) (UniProt P21730); test: Antagonist activity at of C5aR in human macrophages assessed as half life of residence time for maintaining reduction in C5a-induced macrophage response; format: functional
T1 sequence (whole entry): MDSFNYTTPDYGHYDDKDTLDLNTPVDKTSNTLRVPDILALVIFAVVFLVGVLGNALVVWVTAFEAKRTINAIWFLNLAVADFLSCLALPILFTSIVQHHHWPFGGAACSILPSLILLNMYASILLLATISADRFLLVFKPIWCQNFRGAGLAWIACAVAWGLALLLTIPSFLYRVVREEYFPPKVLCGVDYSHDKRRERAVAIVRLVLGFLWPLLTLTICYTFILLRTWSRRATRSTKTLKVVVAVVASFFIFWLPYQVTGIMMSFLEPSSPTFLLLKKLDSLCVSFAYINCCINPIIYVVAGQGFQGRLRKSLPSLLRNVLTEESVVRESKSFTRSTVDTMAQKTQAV

Question: Which T1/2 does the source give for `COc1ccc2c(c1)C(C(=O)N(Cc1ccc(N(C)C)cc1)c1ccc(C(C)C)cc1)CCC2` (stereo not drawn) here?
Answer: 1 to 3 h

Question: Which T1/2 does the source give for `CC(=O)N[C@@H](Cc1ccccc1)C(=O)N[C@H]1CCCNC(=O)[C@H](CCCN=C(N)N)NC(=O)[C@H](Cc2c[nH]c3ccccc23)NC(=O)[C@@H](CC2CCCCC2)NC(=O)[C@@H]2CCCN2C1=O` here?
Answer: 20 h

Question: Which T1/2 does the source give for `CCc1cccc(CC)c1-c1cc(OC(C)C)c2c(n1)CCCC2Nc1ccccc1CCO` (stereo not drawn) here?
Answer: 1 to 3 h
